Our source for the pest or weed control values is patent publication US20110086759A1, “CHEMICAL COMPOUNDS” (SYNGENTA CROP PROTECTION, INC., priority 2007, published 2011).

Format in all cases: in vivo
The test system of test [1] is Alopecurus myosuroides (ALOMY). The experiment in a line: Post-emergence biological efficacy, glasshouse pot test. The following applies: 312 h. The procedure: (§1) Seeds of Alopecurus myosuroides (ALOMY), Setaria faberi (SETFA), Echinochloa crus-galli (ECHCG), Solanum nigrum (SOLNI), Amaranthus retoflexus (AMARE) and Ipomea hederaceae (IPOHE) were sown in standard soil in pots. After cultivation for 8 days under controlled conditions in a glasshouse (at 24/16° C., day/night; 14 hours light; 65% humidity), the plants were sprayed with an aqueous spray solution derived from the formulation of the technical active ingredient in acetone/water (50:50) solution containing 0.5% Tween 20 (polyoxyethelyene sorbitan monolaurate, CAS RN 9005-64-5) to give a final dose of 1000 or 250 g/ha of test compound.
(§2) The test plants were then grown on under controlled conditions in a glasshouse (at 24/16° C., day/night; 14 hours light; 65% humidity) and watered twice daily. After 13 days the test was evaluated (100=total damage to plant; 0=no damage to plant).

The test system of test [2] is Ipomea hederaceae (IPOHE). Described as above. The following applies: Ipomoea hederacea, 312 h. The method, then: as §1, §2
The test system of test [3] is Setaria faberi (SETFA). Described as above. Particulars: 312 h. The procedure:
as §1, §2

Test [4] concerns Solanum nigrum (SOLNI). The description is as above. Particulars: 312 h. The method, then: as §1, §2
The subject of test [5] is Echinochloa crus-galli (ECHCG). The test is described as above. The following applies: 312 h. The procedure:
as §1, §2

The subject of test [6] is Amaranthus retoflexus (AMARE). The description is as above. Particulars: Amaranthus retroflexus, 312 h. The procedure:
as §1, §2

Test [7] has as its system Alopecurus myosuroides (ALOMY). The experiment in a line: Pre-emergence biological efficacy, glasshouse pot test. The following applies: 312 h. The method, then: as §1, with “one day” for “8 days”
(§3) The test plants were then grown under controlled conditions in the glasshouse (at 24/16° C., day/night; 14 hours light; 65% humidity) and watered twice daily. After 13 days the test was evaluated (100=total damage to plant; 0=no damage to plant).

The test system of test [8] is Ipomea hederaceae (IPOHE). The test is described as above. Particulars: Ipomoea hederacea, 312 h. The procedure:
as §1, with “one day” for “8 days”
as §3

Test [9] relates to Setaria faberi (SETFA). The description is as above. Particulars: 312 h. The procedure: as §1, with “one day” for “8 days”
as §3

The subject of test [10] is Solanum nigrum (SOLNI). Described as above. The following applies: 312 h, pre-emergence, 1,000 g/ha, evaluated after 13 days (100=total damage; 0=no damage), read-out: Percentage damage SOLNI. The method, then:
as §1, with “one day” for “8 days”
as §3

Test [11] has as its system Echinochloa crus-galli (ECHCG). Described as above. The following applies: 312 h. The procedure:
as §1, with “one day” for “8 days”
as §3

Test [12] deals with Amaranthus retoflexus (AMARE). The test is described as above. The following applies: Amaranthus retroflexus, 312 h; pre-emergence, 1,000 g/ha, evaluated after 13 days (100=total damage; 0=no damage); read-out: Percentage damage AMARE. The procedure:
as §1, with “one day” for “8 days”
as §3

Setting [13] is: post-emergence, 1,000 g/ha, evaluated after 13 days (100=total damage; 0=no damage), read-out: Percentage damage caused to weed species, ALOMY.
[14] abbreviates: post-emergence, 1,000 g/ha, evaluated after 13 days (100=total damage; 0=no damage), read-out: Percentage damage caused to weed species, IPOHE.
Where [15] appears, read: post-emergence, 1,000 g/ha, evaluated after 13 days (100=total damage; 0=no damage), read-out: Percentage damage caused to weed species, SETFA.
The mark [16] stands for this setting: post-emergence, 1,000 g/ha, evaluated after 13 days (100=total damage; 0=no damage), read-out: Percentage damage caused to weed species, SOLNI.
The mark [17] stands for this setting: post-emergence, 1,000 g/ha, evaluated after 13 days (100=total damage; 0=no damage), read-out: Percentage damage caused to weed species, ECHCG.
Setting [18] is: post-emergence, 1,000 g/ha, evaluated after 13 days (100=total damage; 0=no damage), read-out: Percentage damage caused to weed species, AMARE.
The mark [19] stands for this setting: pre-emergence, 1,000 g/ha, evaluated after 13 days (100=total damage; 0=no damage), read-out: Percentage damage ALOMY.
[20] abbreviates: pre-emergence, 1,000 g/ha, evaluated after 13 days (100=total damage; 0=no damage), read-out: Percentage damage IPOHE.
Where [21] appears, read: pre-emergence, 1,000 g/ha, evaluated after 13 days (100=total damage; 0=no damage), read-out: Percentage damage SETFA.
[22] abbreviates: pre-emergence, 1,000 g/ha, evaluated after 13 days (100=total damage; 0=no damage), read-out: Percentage damage ECHCG.

For the molecule `COC(=O)c1nc(C2CC2)nc(N[C@H]2CCCC[C@@H]2O)c1Cl` (relative stereo) [4-36 (trans), 5-Chloro-2-cyclopropyl-4-(trans-2-hydroxycyclohexyl-amino)-6-methoxy-carbonylpyrimidine], the pest or weed control at 1000 g/ha was 20% in [1] (setting [13]); 40% in test [2] (setting [14]); 20% with Setaria faberi (SETFA) [3] (setting [15]); 70% in the test on Solanum nigrum (SOLNI) [4] (setting [16]); 10% in test [5] (setting [17]); 80% in test [6] (setting [18]). The pest or weed control at 1000 g/ha in test [7] (setting [19]) was 10%; in test [8] (setting [20]), 60%; in the test on Setaria faberi (SETFA) [9] (setting [21]), 20%; with Solanum nigrum (SOLNI) [10] it was 70%; in test [11] (setting [22]) it was 20%; in test [12], 80%.
As to `COC(=O)c1nc(C2CC2)nc(NC2(/C=C/c3ccccc3)CC2)c1Cl` [4-19 (E), 5-Chloro-2-cyclopropyl-6-methoxycarbonyl-4-[1-(2-phenyl-ethenyl)-cyclo-propylamino]-pyrimidine], the pest or weed control at 1000 g/ha in test [1] (setting [13]) was 20%; in test [2] (setting [14]), 100%; with Setaria faberi (SETFA) [3] (setting [15]), 70%; in the test on Solanum nigrum (SOLNI) [4] (setting [16]), 80%; in test [5] (setting [17]), 40%; in test [6] (setting [18]) it was 100%. The pest or weed control at 1000 g/ha in [7] (setting [19]) is 20%; in test [8] (setting [20]), 80%; with Setaria faberi (SETFA) [9] (setting [21]), 20%; with Solanum nigrum (SOLNI) [10], 60%; in [11] (setting [22]), 20%; in test [12], 40%.
In the case of `COC(=O)c1nc(C2CC2)nc(NCCC2=CCCCC2)c1Cl` [Compound 4-215, 5-Chloro-4-[2-(cyclohex-1-enyl)ethylamino]-2-cyclopropyl-6-methoxycarbonyl-pyrimidine], the pest or weed control at 1000 g/ha in test [1] (setting [13]) was 20%; in [2] (setting [14]), 80%; in the test with Setaria faberi (SETFA) [3] (setting [15]) it was 50%; in the test on Solanum nigrum (SOLNI) [4] (setting [16]), 100%; in [5] (setting [17]), 30%; in [7] (setting [19]), 10%. Moreover, the pest or weed control at 1000 g/ha was 90% in test [8] (setting [20]); 20% in the test on Setaria faberi (SETFA) [9] (setting [21]); 90% in the test with Solanum nigrum (SOLNI) [10]; 20% in [11] (setting [22]); 100% in test [12].
Take `COC(=O)c1nc(C2CC2)nc(NCC(F)c2cccc(Br)c2)c1Cl` (stereo not shown) [Compound 4-235, 4-[2-(3-Bromophenyl)-2-fluoro-ethylamino]-5-chloro-2-cyclopropyl-6-methoxycarbonyl-pyrimidine]: the pest or weed control at 1000 g/ha in [1] (setting [13]) turned out to be 0%; in [2] (setting [14]), 70%; with Setaria faberi (SETFA) [3] (setting [15]), 20%; in the test on Solanum nigrum (SOLNI) [4] (setting [16]), 60%; in test [5] (setting [17]), 30%; in [6] (setting [18]), 100%. In addition, the pest or weed control at 1000 g/ha (in test [7] (setting [19]); in test [8] (setting [20]); in the test with Setaria faberi (SETFA) [9] (setting [21]); in test [11] (setting [22])) was 0% each time.
As for `COC(=O)c1nc(-c2ccc(OC)c(F)c2)nc(NCc2ccco2)c1Cl` [Compound 253-48, 5-Chloro-2-(3-fluoro-4-methoxyphenyl)-4-(furan-2-yl-methyl-amino)-6-methoxy-carbonylpyrimidine], the pest or weed control at 1000 g/ha in test [1] (Rate 1,000 g/ha, post-emergence spray, evaluated after 13 days (100=total damage to plant; 0=no damage to plant), read-out: Percentage damage caused to weed species, post-emergence, ALOMY) is 0%; in [2] (Rate 1,000 g/ha, post-emergence spray, evaluated after 13 days (100=total damage to plant; 0=no damage to plant), read-out: Percentage damage caused to weed species, post-emergence, IPOHE) it was 20%; in the test on Setaria faberi (SETFA) [3] (Rate 1,000 g/ha, post-emergence spray, evaluated after 13 days (100=total damage to plant; 0=no damage to plant), read-out: Percentage damage caused to weed species, post-emergence, SETFA), 0%; in the test with Solanum nigrum (SOLNI) [4] (Rate 1,000 g/ha, post-emergence spray, evaluated after 13 days (100=total damage to plant; 0=no damage to plant), read-out: Percentage damage caused to weed species, post-emergence, SOLNI), 40%; in test [5] (Rate 1,000 g/ha, post-emergence spray, evaluated after 13 days (100=total damage to plant; 0=no damage to plant), read-out: Percentage damage caused to weed species, post-emergence, ECHCG), 0%; in test [6] (Rate 1,000 g/ha, post-emergence spray, evaluated after 13 days (100=total damage to plant; 0=no damage to plant), read-out: Percentage damage caused to weed species, post-emergence, AMARE), 70%. Besides, the pest or weed control at 1000 g/ha in [7] (pre-emergence, rate 1,000 g/ha, evaluated after 13 days (100=total damage to plant; 0=no damage), read-out: Percentage damage caused to weed species, ALOMY) came out at 0%; in test [8] (pre-emergence, rate 1,000 g/ha, evaluated after 13 days (100=total damage to plant; 0=no damage), read-out: Percentage damage caused to weed species, IPOHE), 0%; in the test with Setaria faberi (SETFA) [9] (pre-emergence, rate 1,000 g/ha, evaluated after 13 days (100=total damage to plant; 0=no damage), read-out: Percentage damage caused to weed species, SETFA) it was 0%; in test [11] (pre-emergence, rate 1,000 g/ha, evaluated after 13 days (100=total damage to plant; 0=no damage), read-out: Percentage damage caused to weed species, ECHCG), 0%.
